PMC9660540 (Clinical Cancer Research, 2022)

Key:
[1] = tested on: metastatic castration-resistant prostate cancer (mCRPC); assay: Tumor response; assay type: in vivo, human
[2] = tested on: metastatic castration-resistant prostate cancer (mCRPC); assay: PSA response in patients with mCRPC; assay type: in vivo, human
[3] = tested on: colorectal cancer (IO-naïve); assay: Tumor response; assay type: in vivo, human
CYP1A2 = settings: clinical drug–drug interaction study with fluvoxamine; ref [34]; cited from earlier work

With `Cc1cc(-c2nnc(N)nc2-c2ccc(F)cc2)cc(Cl)n1` [AZD4635] the “Disease control rate (DCR; CR, PR, or SD for at least 22 weeks)” value ([1]; mCRPC) was 18.0%, the Duration of response ([1]; mCRPC responders, monotherapy and plus durvalumab together) was 2.3 to 34.0 months and the Tumor responses ([1]; mCRPC, responders/evaluable) was 2/39. The “Confirmed PR” value ([1]; mCRPC, tumor response–evaluable population) was 2 patients, the “Confirmed PSA responses” value [2] was 3.3% and the PSA50 response [2] was 5.0%. For the same compound, the Prostate-specific antigen responses ([2]; responders/evaluable) was 3/60, the “Best response of stable disease (SD) after a minimum of 2 cycles” value [3] was 9 (45.0%) n (%) and the Metabolism (CYP1A2) was “primarily metabolized by CYP1A2”.
